From patent publication US20210062177A1, “Alginate Lyase” (Ocean University of China, priority 2019, published 2021)
Like-named read-outs stand apart in the source and are kept apart here.

B1: ScCD6: novel PL-6 family alginate lyase from Streptomyces coelicolor A3(2), 493 amino acids, SEQ ID NO: 1 (protein)
chain: MNRPRLSTYAAITVAAITIAALTTAASALASTGDTSSRTPSGNSTPQANATIVNVSSSTQLTTAMANAVAGQTIVLANGSYSIGKLNAKNGTSSAPITIMAAQQGKAIITGGQLEVLSSSYVTFSGLKWTNSNTLKITSSHHIRLTRNHFRLTESSSLKWIIIQGANSHHNRIDHNLFEEKHQLGNFITIDGSSTQQSQYDLIDYNHFRNIGPRATNEMEAIRVGWSAISKSDGFTTVENNLFENCDGDPEIVSVKSNANTVRYNTFRTSQGSVSLRHGNRSQVHGNFFFGGGKTGTGGVRVYGQDHKIYNNHFEGLTGTGYDAALQLDGGDVDTSGALSSHWRVYRATAVHNTFVNNVSNIEIGANYSLAPVDSLVADNIVVGSSGKLFNELKMPKNMTYAGNIGWPTGSATIGITTGVRTVNPLLAKQGEVYRLGTGSPAVNTASGSYSFLADDMDGQSRSGTADVGADELSTGTVVHKPLNSADVGISAP
modifications: Streptomyces coelicolor

Columns and labels:
ScCD6 = assay: Effects of metal ions and chemical reagents on ScCD6 enzyme activity; assay type: biochemical, Streptomyces coelicolor A3(2); settings: ScCD6 activity with metal ion/chemical reagent; for Relative enzyme activity %: control = 100.00
Method: (§1) Using 0.3% (w/v) sodium alginate as the substrate, in a 200 μL reaction system, after reaction for 20 min and boiling 2 min for inactivating, DNS method was used to determine the content of reducing sugar in the product to characterize the enzyme activity.
(§2) To determine the temperature stability, ScCD6 was incubated at 30° C., 40° C., 50° C. and 60° C., and its residual enzyme activity was determined by sampling at different times. When determining the stabilities of the enzyme under different pH, the enzyme was stored in buffer solution with pH 7.0, 8.0, 9.0 and 10.0 at 4° C., and the residual enzyme activity was determined by sampling at different times. […] In order to investigate the substrate specificity of ScCD6, sodium alginate, poly M and poly G were used as substrates and reacted at 40° C. for 20 min. The content of reducing sugar was determined by DNS method.

[1] = Product analysis of polysaccharide degradation by ScCD6 (HPLC); assay type: biochemical
Method: Further, the concentration of substrate (sodium alginate, poly M, poly G) in the reaction can be 0.3% (w/v). An amount of added enzyme can be 0.6 U. A reaction can be carried out at 30° C., pH 7.0 for 12 hours. The obtained products can be used for HPLC tests.
Using 0.3% (w/v) sodium alginate, poly M and poly G substrates, in a 200 μL reaction system, 0.6 U alginate lyase ScCD6 was added and reacted at 30° C. and pH 7.0 for 12 hours. The reaction product was boiled for 10 min and centrifuged at 10,000 rpm for 10 min to remove the proteins and other impurities in the system. The supernatant was collected and passed through a 0.22 μm filter membrane for HPLC test. The HPLC conditions were as follows: Superdex™ 30 Increase 30/100 Gel column, 0.2 M NH4HCO3 as mobile phase, flow rate of 0.4 mL/min, room temperature (˜25° C.), loading sample volume of 100 μL, UV detection at 235 nm.

[2] = Method: as §1, §2
[3] = ScCD6 enzyme activity, reducing sugar by DNS method (optimum temperature and pH); assay type: biochemical
Method: as §1, §2

[4] = Substrate specificity of ScCD6 (DNS method); assay type: biochemical; settings: sodium alginate, poly M, poly G; 40° C. for 20 min
Method: as §2

| Molecule | effect on the enzyme activity (ScCD6) | Relative enzyme activity % (ScCD6) | further results |
| --- | --- | --- | --- |
| [Na+] [Na^+] | little effects on the enzyme activity | 101.15% |  |
| [Ba+2] [Ba^2+] | promote the enzyme activity | 108.96% |  |
| [Co+2] [Co^2+] | promote the enzyme activity | 106.89% |  |
| [Fe+3] [Fe^3+] | promote the enzyme activity | 110.41% |  |
| [Mn+2] [Mn^2+] | promote the enzyme activity | 110.91% |  |
| [Ni+2] [Ni^2+] | inhibit the enzyme activity | 85.86% |  |
| CCCCCCCCCCCCOS(=O)(=O)[O-].[Na+] [SDS] | inhibit the enzyme activity | 92.02% |  |
| [Mg+2] [Mg^2+] | inhibit the enzyme activity | 91.64% |  |
| [Cu+2] [Cu^2+] | inhibit the enzyme activity | 86.33% |  |
| [K+] [K^+] | little effects on the enzyme activity | 98.28% |  |
| [Ca+2] [Ca^2+] | little effects on the enzyme activity | 101.76% |  |
| O=C([O-])CN(CCN(CC(=O)[O-])CC(=O)O)CC(=O)O.[Na+].[Na+] [Na2EDTA] | lose the enzyme activity | 1.03% |  |
| [Zn+2] [Zn^2+] | promote the enzyme activity | 109.04% |  |
| B1 |  |  | degradation of polysaccharides ([1]; 0.3% (w/v) sodium alginate, poly M, poly G, 0.6 U, 30° C., pH 7.0, 12 hours, HPLC): could degrade all three kinds of polysaccharides; mode of digestion ([1]; HPLC product analysis): endo-type alginate lyase; polymerization degree of unsaturated oligosaccharide products ([1]; degradation of sodium alginate): 2-8; unsaturated disaccharides as share of the total unsaturated oligosaccharide products ([1]; degradation of sodium alginate): about 70%; enzyme activity retained ([2]; 4° C. for 4 days at pH 7.0-10.0): 80%; enzyme activity retained ([2]; 30° C. for 24 hours): 80%; optimum pH ([3]; 50° C., pH 3.0-10.0, 0.3% (w/v) sodium alginate): 9.0; optimum reaction temperature ([3]; pH 7.0, temperature range of 30-100° C., 0.3% (w/v) sodium alginate): 50 °C; substrate specificity [4]: poly M specific alginate lyase |
